Reference: PMC3685270 (Clinical pharmacology and therapeutics, 2011)
In brackets after ≈: the same amount, converted by molar mass. Entries after “also recorded” stand apart in the source; their conditions may differ. Read-outs that look alike come from different tables or passages of the source. Each block holds one molecule with its values, some of them ahead of it.

Columns and labels:
[1] = target: T1, P-glycoprotein (Pgp) at the blood-brain barrier (Homo sapiens, UniProt P08183); assay type: in vivo; settings: for EC50: tariquidar plasma concentration at end of PET scan
[2] = assay type: in vivo, human; settings: humans, maximum administered dose 8 mg/kg
[3] = Safety monitoring / adverse events after tariquidar infusion; assay type: in vivo, human; settings: for Tolerability: healthy subjects, 3, 4, 6 and 8 mg/kg i.v. infusion
Unmetabolized = assay type: in vivo, human; settings: AUC 0-40 min, different tariquidar doses vs 0 mg/kg
[4] = target: T1, P-glycoprotein (Pgp) at the blood-brain barrier; settings: (R)-[^11C]verapamil whole brain, tariquidar 2 mg/kg, n=5, cited from earlier work
[5] = test system: P-glycoprotein (Pgp) at the blood-brain barrier; settings: cited from earlier work
[6] = humans; cited from earlier work
[7] = rats, bolus administration of 30 mg/kg; cited from earlier work
[8] = test system: Pgp in CD56-positive lymphocytes; settings: single i.v. dose of 2 mg/kg, over 24 h; cited from earlier work
Pgp at the human BBB [9] = settings: 2 mg/kg dose; cited from earlier work
[10] = previous studies (human and rat); cited from earlier work
[11] = test system: breast cancer resistance protein (BCRP, ABCG2); settings: cited from earlier work
Pgp at the human BBB [12] = assay: [^11C]-N-desmethyl-loperamide PET after tariquidar in healthy human subjects; assay type: in vivo; settings: humans, without tariquidar
[13] = rat, tariquidar plasma concentration at end of PET scan, 0-60 min

T1 sequence (P08183 whole entry): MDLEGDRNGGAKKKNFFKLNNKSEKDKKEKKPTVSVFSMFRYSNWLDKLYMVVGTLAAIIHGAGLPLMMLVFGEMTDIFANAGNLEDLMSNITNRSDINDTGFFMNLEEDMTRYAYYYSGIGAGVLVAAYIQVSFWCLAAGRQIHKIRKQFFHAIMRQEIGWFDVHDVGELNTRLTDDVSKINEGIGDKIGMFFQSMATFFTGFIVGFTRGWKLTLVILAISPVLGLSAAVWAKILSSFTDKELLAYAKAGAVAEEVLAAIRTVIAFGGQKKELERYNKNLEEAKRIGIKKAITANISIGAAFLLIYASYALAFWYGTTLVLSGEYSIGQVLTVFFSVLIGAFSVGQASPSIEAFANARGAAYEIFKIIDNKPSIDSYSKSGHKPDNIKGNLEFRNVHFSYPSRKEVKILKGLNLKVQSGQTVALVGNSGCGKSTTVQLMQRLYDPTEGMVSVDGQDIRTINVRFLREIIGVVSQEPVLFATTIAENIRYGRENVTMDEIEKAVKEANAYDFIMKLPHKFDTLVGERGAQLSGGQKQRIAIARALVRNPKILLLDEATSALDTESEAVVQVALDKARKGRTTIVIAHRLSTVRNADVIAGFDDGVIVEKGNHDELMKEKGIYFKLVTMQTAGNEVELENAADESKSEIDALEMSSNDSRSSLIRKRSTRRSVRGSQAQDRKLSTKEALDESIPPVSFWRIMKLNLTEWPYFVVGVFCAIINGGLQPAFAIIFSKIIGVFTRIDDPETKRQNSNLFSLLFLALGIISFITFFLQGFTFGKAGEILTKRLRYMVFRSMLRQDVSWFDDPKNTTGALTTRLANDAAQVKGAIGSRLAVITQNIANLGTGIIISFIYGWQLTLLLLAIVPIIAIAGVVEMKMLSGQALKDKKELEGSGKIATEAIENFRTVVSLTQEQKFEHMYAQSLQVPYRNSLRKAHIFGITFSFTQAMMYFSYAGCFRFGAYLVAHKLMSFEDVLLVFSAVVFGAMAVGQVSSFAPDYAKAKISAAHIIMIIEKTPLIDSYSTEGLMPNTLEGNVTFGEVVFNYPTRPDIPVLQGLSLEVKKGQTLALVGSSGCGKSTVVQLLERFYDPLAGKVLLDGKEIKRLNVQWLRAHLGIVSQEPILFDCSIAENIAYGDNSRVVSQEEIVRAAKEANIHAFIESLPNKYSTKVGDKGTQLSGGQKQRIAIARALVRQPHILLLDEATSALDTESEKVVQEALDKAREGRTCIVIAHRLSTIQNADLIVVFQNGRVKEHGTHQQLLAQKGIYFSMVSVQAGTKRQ

EC50 ([1]; EC50, K1–K1 baseline (1T2K), human, 0-10 min): 806 nM
EC50 ([1]; EC50, K1–K1 baseline (2T4K), human, 0-40 min): 813 nM
EC50 ([1]; EC50, VT–VT baseline (2T4K), human, 0-40 min): 867 nM
n (Hill coefficient), K1–K1 baseline (1T2K) ([1]; human, 0-10 min): 6.2±3.5
n (Hill coefficient), K1–K1 baseline (2T4K) ([1]; human, 0-40 min): 6.3±3.5
n (Hill coefficient), VT–VT baseline (2T4K) ([1]; human, 0-40 min): 11.3±5.4
Tariquidar plasma concentration at which brain VT approached plateau levels ([1]; humans): > 1,000 ng/mL
Tariquidar plasma concentration at time of PET [2]: up to 1,312 ng/mL
Structure (SMILES): COc1cc2c(cc1OC)CN(CCc1ccc(NC(=O)c3cc(OC)c(OC)cc3NC(=O)c3cnc4ccccc4c3)cc1)CC2 [tariquidar]
Hypotension adverse event ([3]; 8 mg/kg group, infusion stopped 20 min prematurely (7.2 mg/kg administered)): one case of moderate hypotension
Tolerability [3]: well tolerated at doses 4-times the clinically tried
Tolerability ([3]; listed as Tariquidar): generally well tolerated
Dysgeusia (relationship with study drug could not be excluded) ([3]; healthy subjects, 3-8 mg/kg): 6 out of 20
Vertigo (relationship with study drug could not be excluded) ([3]; healthy subjects, 3-8 mg/kg, 20 subjects): 3 subjects
Effect on concentration of unmetabolized (R)-[^11C]verapamil in plasma (Unmetabolized): lacked pharmacokinetic interactions; also recorded: did not affect
K1 (1T2K) ([4]; 0-10 min): 0.051±0.006 (6) mL·mL^−1·min^−1
K1 (2T4K) ([4]; 0-40 min): 0.051±0.008 (11) mL·mL^−1·min^−1
VT (2T4K) ([4]; 0-40 min): 0.788±0.087 (2) mL·mL^−1
k2 (2T4K) ([4]; 0-40 min): 0.123±0.052 (57) min^−1
k3 (2T4K) ([4]; 0-40 min): 0.156±0.080 (123) min^−1
k4 (2T4K) ([4]; 0-40 min): 0.191±0.063 (42) min^−1
EC50, K1–K1 baseline (2T4K) [5, 13]: 0.441 ± 0.081 µg/mL (≈ 0.682 µM)
EC50, VT–VT baseline (2T4K) [5, 13]: 0.544 ± 0.032 µg/mL (≈ 0.841 µM)
Tariquidar plasma concentration at which brain VT approached plateau levels ([5]; rats): > 1,000 ng/mL
Terminal elimination half-life from plasma [6]: 13 to 23 h
Tariquidar plasma concentration at the time of the PET scan [7]: up to 7,000 ng/mL
Block of Pgp in CD56-positive lymphocytes [8]: 100%
Increase in brain penetration of [^11C]-N-desmethyl-loperamide (Pgp at the human BBB [9]): 25%
Effect of tariquidar on degree of plasma protein binding of (R)-[^11C]verapamil [10]: does not influence
Inhibition of BCRP [11]: inhibits

Structure (SMILES): CNC(=O)C(CCN1CCC(O)(c2ccc(Cl)cc2)CC1)(c1ccccc1)c1ccccc1 [[^11C]-N-desmethyl-loperamide]
Baseline brain uptake lower as compared to (R)-[^11C]verapamil (Pgp at the human BBB [12]): 2 fold
